These are literature values, as cited in patent publication US20070184084A1, “IMPLANTABLE ELASTOMERIC CAPROLACTONE DEPOT COMPOSITIONS AND USES THEREOF” (priority 2003, published 2007).

For the series the following is noted: reported value.

Consider `CC(=O)OCC(COC(C)=O)OC(C)=O` [triacetin], for which the solubility in water was 7.17 grams in 100 ml of water.
